In patent US5962502A, “Polyamidic acid derivatives with antigastrin activity, a method for their preparation, and their pharmaceutical use” (priority 1993, dated 1999):

Key:
central CCK-B receptor = target: T1, central CCK-B receptor (Cavia porcellus, UniProt H0VZC5); experiment: Inhibition of the binding of [3-H][N-methyl-N-leucine]CCK-8 to guinea-pig cortical membranes; details: for IC50: 150 minutes at 25° C.
T1 construct: Cerebral cortices of male white guinea-pigs were thus used; from tissue; host or cells: cerebral cortex membranes of male white guinea-pigs
T1 sequence (H0VZC5 1-426): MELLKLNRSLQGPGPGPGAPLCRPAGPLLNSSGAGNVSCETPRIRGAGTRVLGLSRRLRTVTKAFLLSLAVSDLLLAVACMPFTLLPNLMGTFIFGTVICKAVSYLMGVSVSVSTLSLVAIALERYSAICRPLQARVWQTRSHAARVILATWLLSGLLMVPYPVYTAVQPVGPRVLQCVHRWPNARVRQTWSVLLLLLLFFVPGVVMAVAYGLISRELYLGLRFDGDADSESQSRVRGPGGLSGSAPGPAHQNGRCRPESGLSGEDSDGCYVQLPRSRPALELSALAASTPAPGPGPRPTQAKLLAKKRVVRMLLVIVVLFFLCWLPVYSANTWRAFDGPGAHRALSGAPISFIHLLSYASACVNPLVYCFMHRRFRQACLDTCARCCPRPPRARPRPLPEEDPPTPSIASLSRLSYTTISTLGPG
Experimental: The ability of the compounds of the invention to interact with the central CCK-B receptor was evaluated with the use of non-sulphated [3-H] […] 225 (3) (1990), 1278-1286].
Cerebral cortices of male white guinea-pigs were thus used, according to the method mentioned above, so as to obtain a membrane content corresponding to about 300 mcg of proteins/ml. The membranes were incubated together with the radioactive tracer and the compounds under test for 150 minutes at 25° C. After the supernatant had been discarded, the radioactivity associated with the pellet was determined with a liquid scintillator. The specific binding was determined as the difference between the binding in the absence and in the presence of 5.10^-6 M CCK-8.

[1] = target: T2, gastrin receptors or type-B cholecystokinin (CCK-B) receptors (Oryctolagus cuniculus, UniProt P46627); experiment: Inhibition of the gastrin-induced increase of cytosolic calcium in rabbit gastric mucous-membrane cells (Fura 2); type: cell-based; details: for Ratio IC50 Binding cortex / IC50 (gastric mucous cells): binding values taken from Table 3; for CCK-B-antagonistic activity IC50 (II): data taken from Table 4 (rabbit gastric mucous cells), reprinted in Table 6; for IC50, inhibition of the increase of cytosolic calcium: rabbit gastric mucous cells enriched in parietal cells, gastrin 5×10^-8
T2 construct: Rabbit gastric mucous-membrane cells were prepared by conventional techniques; endogenous in cells; host or cells: freshly isolated rabbit gastric mucosal cells, enriched by elutriation to about 70% parietal cells
T2 sequence (P46627 1-452): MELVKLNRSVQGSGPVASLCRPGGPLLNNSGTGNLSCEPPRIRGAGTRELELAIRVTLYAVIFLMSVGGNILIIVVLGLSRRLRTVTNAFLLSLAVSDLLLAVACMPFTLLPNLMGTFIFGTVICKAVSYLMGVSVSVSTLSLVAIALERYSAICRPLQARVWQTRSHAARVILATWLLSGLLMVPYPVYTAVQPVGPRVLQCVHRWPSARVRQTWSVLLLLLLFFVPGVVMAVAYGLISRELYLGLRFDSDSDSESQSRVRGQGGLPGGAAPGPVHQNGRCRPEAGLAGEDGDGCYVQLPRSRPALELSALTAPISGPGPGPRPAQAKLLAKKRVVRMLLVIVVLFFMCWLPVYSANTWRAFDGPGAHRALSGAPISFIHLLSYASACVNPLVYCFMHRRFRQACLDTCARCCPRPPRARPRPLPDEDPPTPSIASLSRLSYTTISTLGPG
Text: The parietal cells of the gastric mucous membrane are responsible for the secretion of HCl. They have specific membrane receptors which can be activated by gastrin and which have been defined as gastrin receptors or type-B cholecystokinin (CCK-B) receptors. Since it has been observed that the activation of the CCK-B receptors by gastrin leads to an increase in the cytosolic levels of calcium ions, a technique involving the measurement of the increase in intracellular calcium induced by gastrin in the presence and in the absence of the compounds of the invention was used as an index of the antigastrin activity of the compounds. Rabbit gastric mucous-membrane cells were prepared by conventional techniques with the use of collagenase and pronase as digestive enzymes. The cellular preparation obtained by the enzymatic digestion was composed of parietal cells, zymogen cells and mucous-membrane cells. […] The cells were then washed and resuspended in a saline solution buffered with HEPES containing, in mM: […] Each measurement was carried out on cells in suspension (0.8×10^6 /ml) at a thermostatically-controlled temperature of 37° C. and with constant magnetic stirring. The fluorescence was recorded with the use of a spectrofluorometer. The operative wavelengths were 340/380 nm for excitation and 505 nm for emission. […] Biol. Chem. 260 (1985), 3440]. […] The results thus obtained for some compounds of the invention are given in Table 4, which also gives an index derived from the ratio between the peripheral antigastrin activity just described and the displacement activity found in the test on binding to the guinea-pig cortex receptors described above.

CCK-A = target: T3, CCK-A (Cavia porcellus, UniProt Q63931); experiment: Anti-CCK-A activity on guinea-pig gall bladder stimulated in vitro by CCK-8; details: for Ratio I/II (CCK-A IC50 / CCK-B IC50): gall bladder IC50 over gastric mucous cells IC50; for IC50: guinea-pig gall bladder in vitro, CCK-8 10 ng/ml, read-out: CCK-A-antagonistic activity IC50 (I)
T3 construct: A longitudinal strip of guinea-pig gall-bladder was put in a bath for isolated organs; from tissue; host or cells: guinea-pig gall bladder longitudinal strip
T3 sequence (Q63931 1-430): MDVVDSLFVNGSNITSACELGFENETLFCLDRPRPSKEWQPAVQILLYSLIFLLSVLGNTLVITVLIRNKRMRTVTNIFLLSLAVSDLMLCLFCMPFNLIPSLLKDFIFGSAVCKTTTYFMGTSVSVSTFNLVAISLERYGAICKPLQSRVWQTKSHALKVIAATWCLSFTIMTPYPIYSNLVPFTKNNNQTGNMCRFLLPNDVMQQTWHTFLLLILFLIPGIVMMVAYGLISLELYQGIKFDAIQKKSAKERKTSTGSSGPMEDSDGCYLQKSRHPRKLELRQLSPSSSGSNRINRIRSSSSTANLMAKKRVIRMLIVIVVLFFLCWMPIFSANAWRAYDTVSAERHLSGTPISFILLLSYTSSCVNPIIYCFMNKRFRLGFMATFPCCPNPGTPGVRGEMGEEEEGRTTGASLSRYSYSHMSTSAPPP
Experimental: The experimental model used was guinea-pig gall bladder stimulated in vitro by CCK-8, with the use of lorglumide as the reference standard. A longitudinal strip of guinea-pig gall-bladder was put in a bath for isolated organs in the presence of Krebs buffer at a temperature of 32° C., with continuous oxygenation with an oxygen-CO2 mixture (95-[…]). The isometric contractions were detected by means of a force transducer and recorded.

IC50 (central CCK-B receptor; guinea-pig cortical membranes) [nM] | Ratio IC50 Binding cortex / IC50 (gastric mucous cells) [1] | CCK-B-antagonistic activity IC50 (II) [1] [nM] | IC50, inhibition of the increase of cytosolic calcium [1] | Ratio I/II (CCK-A IC50 / CCK-B IC50) (CCK-A) | IC50 (CCK-A) [nM] | inhibition of the binding of [N-methyl-N-leucine]CCK-8, result in words (central CCK-B receptor; guinea-pig cortical membranes) | IC50 order of magnitude, peripheral antigastrin activity ([1]; rabbit gastric mucous cells) | times more active than the corresponding diastereoisomer at the carbon atom (**) (central CCK-B receptor; binding, guinea-pig cortex) | Compound
 |  |  |  |  | 50 |  |  |  | CCCCCN(CCCCC)C(=O)C(CCC(=O)O)NC(=O)c1ccc(Cl)c(Cl)c1 (stereo not drawn) [R-lorglumide, reference compound]
2770 | 1.2 |  | 2330 nM |  |  |  |  |  | Cc1cc(C(=O)O)ccc1NC(=O)CC[C@@H](NC(=O)c1cc(Cl)cc(Cl)c1)C(=O)N1CCC2(CCCC2)CC1 [Compound 52]
1720 | 4.5 |  | 380 nM |  |  |  |  |  | O=C(CC[C@@H](NC(=O)c1cc(Cl)cc(Cl)c1)C(=O)N1CCC2(CCCC2)CC1)Nc1ccc(C(=O)O)cc1 [Compound 47]
1030 | 14.7 |  | 70 nM |  |  |  |  |  | O=C(C[C@@H](NC(=O)c1cc(Cl)cc(Cl)c1)C(=O)N1CCC2(CCCC2)CC1)N[C@H](Cc1c[nH]c2ccccc12)C(=O)O [Compound 43]
1700 | 14.2 |  | 120 nM |  |  |  |  |  | CC1(C)CCC(NC(=O)[C@@H](CCC(=O)O)NC(=O)CC[C@@H](NC(=O)c2cc(Cl)cc(Cl)c2)C(=O)N2CCC3(CCCC3)CC2)CC1 [Compound 35]
730 | 10.4 |  | 70 nM |  |  |  |  | about twice | CC1(C)CCC(NC(=O)[C@H](CCC(=O)O)NC(=O)CC[C@@H](NC(=O)c2cc(Cl)cc(Cl)c2)C(=O)N2CCC3(CCCC3)CC2)CC1 [Compound 34]

Second part, the compound before the results:

Compound | IC50 (central CCK-B receptor; guinea-pig cortical membranes) [nM] | Ratio IC50 Binding cortex / IC50 (gastric mucous cells) [1] | CCK-B-antagonistic activity IC50 (II) [1] [nM] | IC50, inhibition of the increase of cytosolic calcium [1] | Ratio I/II (CCK-A IC50 / CCK-B IC50) (CCK-A) | IC50 (CCK-A) [nM] | inhibition of the binding of [N-methyl-N-leucine]CCK-8, result in words (central CCK-B receptor; guinea-pig cortical membranes) | IC50 order of magnitude, peripheral antigastrin activity ([1]; rabbit gastric mucous cells) | times more active than the corresponding diastereoisomer at the carbon atom (**) (central CCK-B receptor; binding, guinea-pig cortex)
O=C(CC[C@@H](NC(=O)c1cc(Cl)cc(Cl)c1)C(=O)N1CCC2(CCCC2)CC1)N[C@H](Cc1ccc2ccccc2c1)C(=O)O [Compound 24] | 130 | 4.3 | 30 | 30 nM | 1527 | 45800 |  |  | 
CC(C)(C)CCNC(=O)[C@@H](CCC(=O)Nc1ccc(C(=O)O)cc1)NC(=O)c1cc(Cl)cc(Cl)c1 [Compound 53] | 6400 |  |  | IN (IN (inactive) when the IC50 is >3.10^-5 M) |  |  |  |  | 
O=C(CC[C@@H](NC(=O)c1cc(Cl)cc(Cl)c1)C(=O)N1CCC2(CCCC2)CC1)NC(Cc1ccc(O)cc1)C(=O)O (stereo partly drawn) [Compound 18] | 320 | 1.6 |  | 200 nM |  |  |  |  | 
CN(C(=O)CC[C@@H](NC(=O)c1cc(Cl)cc(Cl)c1)C(=O)N1CCC2(CCCC2)CC1)[C@@H](Cc1c[nH]c2ccccc12)C(=O)O [Compound 22] | 380 | 7.6 |  | 50 nM |  |  |  |  | 
CN(CC(=O)O)C(=O)CC[C@@H](NC(=O)c1cc(Cl)cc(Cl)c1)C(=O)N1CCC2(CCCC2)CC1 [Compound 2] | 610 | 0.7 |  | 1500 nM |  |  |  |  | 
O=C(CC[C@@H](NC(=O)c1cc(Cl)cc(Cl)c1)C(=O)N1CCC2(CCCC2)CC1)NC(CCc1ccccc1)C(=O)O (stereo partly drawn) [Compound 16] | 300 | 2.0 |  | 150 nM |  |  |  |  | 
O=C(CC[C@@H](NC(=O)c1cc(Cl)cc(Cl)c1)C(=O)N1CCC2(CCCC2)CC1)NC(Cc1ccccc1)C(=O)O (stereo partly drawn) [Compound 8] | 200 | 3.3 |  | 60 nM |  |  |  |  | 
O=C(CC[C@@H](NC(=O)c1cc(Cl)cc(Cl)c1)C(=O)N1CCC2(CCCC2)CC1)N[C@H](COCc1ccccc1)C(=O)O [Compound 23] | 270 | 4.5 |  | 60 nM |  |  |  |  | 
CN(C(=O)CC[C@@H](NC(=O)c1cc(Cl)cc(Cl)c1)C(=O)N1CCC2(CCCC2)CC1)C(Cc1ccccc1)C(=O)O (stereo partly drawn) [Compound 11] | 220 | 3.1 |  | 70 nM |  |  |  |  | 
O=C(CC[C@@H](NC(=O)c1cc(Cl)cc(Cl)c1)C(=O)N1CCC2(CCCC2)CC1)N[C@H](Cc1ccccn1)C(=O)O [Compound 27] | 150 | 0.6 | 230 | 230 nM | 14.8 | 3400 |  |  | 
O=C(CC[C@@H](NC(=O)c1cc(Cl)cc(Cl)c1)C(=O)N1CCC2(CCCC2)CC1)NC(Cc1c[nH]c2ccccc12)C(=O)O (stereo partly drawn) [Compound 19] | 50 | 5.0 |  | 10 nM |  |  | potent inhibitors | nanomolar order of magnitude | 
O=C(CC[C@@H](NC(=O)c1cc(Cl)cc(Cl)c1)C(=O)N1CCC2(CCCC2)CC1)N[C@H](CC1CCCCC1)C(=O)O [Compound 28] | 650 | 6.5 |  | 100 nM |  |  |  |  | 
CC(C)CC(NC(=O)CC[C@@H](NC(=O)c1cc(Cl)cc(Cl)c1)C(=O)N1CCC2(CCCC2)CC1)C(=O)O (stereo partly drawn) [Compound 6] | 380 | 7.6 |  | 50 nM |  |  |  |  | 
